Source: patent US9339033B2, “1-aryl-5-alkyl pyrazole derivative compounds, processes of making and methods of using thereof” (MERIAL, INC., priority 2007, dated 2016)

Legend:
[1] = system: western flower thrips (Frankliniella occidentalis); test: Method L: Frankliniella occidentalis test (spray application); assay type: in vivo; conditions: concentration of 500 g/ha, spray on French bean leaf-disks
Text: Method L: Frankliniella occidentalis Test (Spray Application)
French bean (Phaseolus vulgaris) leaf-disks are sprayed with a test solution containing the desired concentration of the active ingredient. Once dry, the leaf disks are infested with western flower thrips (Frankliniella occidentalis).
100% means that all the thrips have been killed; 0% means that none of the thrips have been killed.

[2] = system: Rhipicephalus sanguineus (Brown Dog Tick); test: Method A: contact activity against ticks; assay type: in vivo; conditions: 48 h; for LC50: read-out: LD50; for pest or weed control at 25 µg/mL: read-out: control of Rhipicephalus sanguineus
Text: • Method of Use Examples Method A: Screening Method to Test Contact Activity of Compounds Against Ticks
A solution of the test compound was used to coat the inner wall of glass vials and to treat two filter papers. Once dried, one filter paper was placed in the cap of the vial and the other in the bottom of the vial. Each treated vial was infested with 10 adult Rhipicephalus sanguineus (Brown Dog Tick). Contact of the ticks with residues was induced by holding the vials in a controlled environment (24° C., 90-95% relative humidity) and assessment was performed at 24, 48 hours after application in comparison with untreated controls.

[3] = system: green peach aphid (Myzus persicae); test: Method J: Myzus persicae test (spray application); assay type: in vivo; conditions: concentration of 500 g/ha, spray on infected Chinese cabbage leaf-disks
Text: Method J: Myzus persicae Test (Spray Application)
100% means that all aphids have been killed; 0% means that none of the aphids have been killed.

[4] = system: two spotted spidermite (Tetranychus urticae); test: Method K: Tetranychus urticae test; OP-resistant (spray application); conditions: read-out: activity (mortality in %), Tetranychus urticae
Procedure: Method K: Tetranychus urticae Test; OP-Resistant (Spray Application)
French beans (Phaseolus vulgaris) which are heavily infested with all stages of the two spotted spidermite (Tetranychus urticae), are sprayed with a preparation of the active ingredient at the desired concentration.
After the specified period of time, mortality in % is determined. 100% means that all spider mites have been killed and 0% means that none of the spider mites have been killed.

[5] = system: fall armyworm larvae (Spodoptera frugiperda); test: Method I: Spodoptera frugiperda test (spray application); assay type: in vivo; conditions: concentration of 500 g/ha, spray on maize leaf sections
Text: Method I: Spodoptera frugiperda Test (Spray Application)
Maize (Zea mais) leaf sections are sprayed with a preparation of the active ingredient of the desired concentration. Once dry, the leaf sections are infested with fall armyworm larvae (Spodoptera frugiperda).

[6] = system: am. serpentine leaf miner (Liriomyza trifolii); test: Method M: Liriomyza trifolii test (spray application); assay type: in vivo; conditions: concentration of 500 g/ha, spray on infested French bean leaf-disks
Text: Method M: Liriomyza trifolii Test (Spray Application)
French bean (Phaseolus vulgaris) leaf-disks infested with larvaes of the am. serpentine leaf miner (Liriomyza trifolii) are sprayed with a test solution containing the desired concentration of the active ingredient.
100% means that all the leaf miners have been killed; 0% means that none of the leaf miners have been killed.

[7] = cited from earlier work
Ctenocephalides felis = test: Method B: contact activity against fleas; assay type: in vivo; conditions: 72 hours assessment
Procedure: Method B: Screening Method to Test Contact Activity of Compounds Against Fleas
A solution of the test compound was dispensed, using a pipette, onto filter paper placed into a glass vial. The filter paper was allowed to dry before infesting each vial with 10 adult Ctenocephalides felis. The treated Ctenocephalides felis were held in a controlled environment (24° C., 90-95% relative humidity) and assessment was performed at 24, 48 and 72 hours after application in comparison with untreated controls.

| Structure (SMILES) | mortality at 500 g/ha [1] [%] | LC50 [2] [µg/mL] | pest or weed control at 25 µg/mL [2] [%] | mortality at 500 g/ha [3] [%] | mortality at 100 g/ha [4] [%] | mortality at 500 g/ha [5] [%] | mortality at 500 g/ha [6] [%] | oral LD50 [7] | LD50 (Ctenocephalides felis) |
| --- | --- | --- | --- | --- | --- | --- | --- | --- | --- |
| N#Cc1nn(-c2c(Cl)cc(OC(F)(F)F)cc2Cl)c(CF)c1SC(F)(F)F [Compound 16, 3-Cyano-1-(2,6-dichloro-4-trifluoromethoxyphenyl)-5-fluoromethyl-4-trifluoromethylthiopyrazole] | ≥ 80 | < 6 | ≥ 80 | ≥ 80 |  |  |  |  |  |
| N#Cc1nn(-c2c(F)cc(C(F)(F)F)cc2Cl)c(CF)c1SC(F)(F)F [Compound 8, 1-(2-Chloro-6-fluoro-4-trifluoromethylphenyl)-3-cyano-5-fluoromethyl-4-trifluoromethylthiopyrazole] | ≥ 80 | < 6 | ≥ 80 | ≥ 80 |  |  |  |  |  |
| N#Cc1nn(-c2c(Cl)cc(C(F)(F)F)cc2Cl)c(CF)c1SC(F)(F)F [Compound 3, 3-cyano-1-(2,6-dichloro-4-trifluoromethylphenyl)-5-fluoromethyl-4-trifluoromethylthiopyrazole] | ≥ 80 | < 6 | ≥ 80 | ≥ 80 |  |  |  |  |  |
| Cc1cc(C(F)(F)F)cc(Cl)c1-n1nc(C#N)c(SC(F)(F)F)c1C [Compound 43, 1-(2-chloro-6-methyl-4-trifluoromethylphenyl)-3-cyano-5-methyl-4-trifluoromethylthiopyrazole] |  | < 6 | ≥ 80 | ≥ 80 |  |  |  |  |  |
| Cc1c([S+]([O-])C(F)(F)F)c(C#N)nn1-c1ccc(C(F)(F)F)cc1F (stereo not shown) [Compound 14, 3-Cyano-1-(2-fluoro-4-trifluoromethylphenyl)-5-methyl-4-trifluoromethylsulfinylpyrazole] |  | < 6 | ≥ 80 | ≥ 80 | ≥ 80 |  |  |  |  |
| Cc1c([S+]([O-])C(F)(F)F)c(C#N)nn1-c1c(Cl)cc(C(F)(F)F)cc1Cl (stereo not shown) [Compound 5, 3-cyano-1-(2,6-dichloro-4-trifluoromethylphenyl)-5-methyl-4-trifluoromethylsulfinylpyrazole] | ≥ 80 | < 6 | ≥ 80 | ≥ 80 |  | ≥ 80 |  |  |  |
| N#Cc1nn(-c2c(Cl)cc(OC(F)(F)F)cc2Cl)c(CF)c1[S+]([O-])C(F)(F)F (stereo not shown) [Compound 18, 3-Cyano-1-(2,6-dichloro-4-trifluoromethoxyphenyl)-5-fluoromethyl-4-trifluoromethylsulfinylpyrazole] |  | < 6 | ≥ 80 | ≥ 80 |  |  |  |  |  |
| Cc1c([S+]([O-])C(F)(F)F)c(C#N)nn1-c1c(F)cc(C(F)(F)F)cc1Cl (stereo not shown) [Compound 9, 1-(2-Chloro-6-fluoro-4-trifluoromethylphenyl)-3-cyano-5-methyl-4-trifluoromethylsulfinylpyrazole] | ≥ 80 | < 6 | ≥ 80 | ≥ 80 |  |  |  |  |  |
| Cc1c([S+]([O-])C(F)(F)F)c(C#N)nn1-c1c(F)cc(C(F)(F)F)cc1F (stereo not shown) [Compound 12, 3-Cyano-1-(2,6-difluoro-4-trifluoromethylphenyl)-5-methyl-4-trifluoromethylsulfinylpyrazole] | ≥ 80 | < 6 | ≥ 80 | ≥ 80 |  |  |  |  |  |
| Cc1c(SC(F)(F)F)c(C#N)nn1-c1c(Cl)cc(OC(F)(F)F)cc1Cl [Compound 17, 3-Cyano-1-(2,6-dichloro-4-trifluoromethoxyphenyl)-5-methyl-4-trifluoromethylthiopyrazole] |  | < 6 | ≥ 80 | ≥ 80 |  |  |  |  |  |
| Cc1c(SC(F)(F)F)c(C#N)nn1-c1c(F)cc(C(F)(F)F)cc1F [Compound 6, 3-cyano-1-(2,6-difluoro-4-trifluoromethylphenyl)-5-methyl-4-trifluoromethylthiopyrazole] | ≥ 80 | < 6 | ≥ 80 | ≥ 80 |  |  |  |  |  |
| Cc1c(SC(F)(F)F)c(C#N)nn1-c1c(Cl)cc(C(F)(F)F)cc1Cl [Compound 1, 3-Cyano-1-(2,6-dichloro-4-trifluoromethylphenyl)-5-methyl-4-trifluoromethylthiopyrazole] | ≥ 80 | < 6 | ≥ 80 | ≥ 80 |  |  |  |  |  |
| Cc1c([S+]([O-])C(F)(F)F)c(C#N)nn1-c1c(Cl)cc(OC(F)(F)F)cc1Cl (stereo not shown) [Compound 19, 3-Cyano-1-(2,6-dichloro-4-trifluoromethoxyphenyl)-5-methyl-4-trifluoromethylsulfinylpyrazole] | ≥ 80 | < 6 | ≥ 80 | ≥ 80 |  |  |  |  |  |
| Cc1c(SC(F)(F)F)c(C#N)nn1-c1c(F)cc(C(F)(F)F)cc1Cl [Compound 7, 1-(2-Chloro-6-fluoro-4-trifluoromethylphenyl)-3-cyano-5-methyl-4-trifluoromethylthiopyrazole] | ≥ 80 | < 6 | ≥ 80 | ≥ 80 |  |  |  |  |  |
| N#Cc1nn(-c2c(F)cc(C(F)(F)F)cc2Cl)c(CF)c1[S+]([O-])C(F)(F)F (stereo not shown) [Compound 11, 1-(2-Chloro-6-fluoro-4-trifluoromethylphenyl)-3-cyano-5-fluoromethyl-4-trifluoromethylsulfinylpyrazole] |  | < 6 | ≥ 80 | ≥ 80 |  |  |  |  |  |
| Cc1c(S(=O)(=O)C(F)(F)F)c(C#N)nn1-c1c(Cl)cc(C(F)(F)F)cc1Cl [Compound 4, 3-cyano-1-(2,6-dichloro-4-trifluoromethylphenyl)-5-methyl-4-trifluoromethylsulfonylpyrazole] | ≥ 80 | < 6 | ≥ 80 | ≥ 80 |  |  |  |  |  |
| Cc1cc(C(F)(F)F)cc(Cl)c1-n1nc(C#N)c([S+]([O-])C(F)(F)F)c1C (stereo not shown) [Compound 44, 1-(2-Chloro-6-methyl-4-trifluoromethylphenyl)-3-cyano-5-methyl-4-trifluoromethylsulfinylpyrazole] | ≥ 80 | < 6 | ≥ 80 | ≥ 80 |  |  |  |  |  |
| N#Cc1nn(-c2c(Cl)cc(C(F)(F)F)cc2Cl)c(CF)c1[S+]([O-])C(F)(F)F (stereo not shown) [Compound 10, 3-Cyano-1-(2,6-dichloro-4-trifluoromethylphenyl)-5-fluoromethyl-4-trifluoromethylsulfinylpyrazole] | ≥ 80 | < 6 | ≥ 80 | ≥ 80 |  | ≥ 80 | ≥ 80 |  |  |
| N#Cc1ccc(CC(=NNC(=O)Nc2ccc(OC(F)(F)F)cc2)c2cccc(C(F)(F)F)c2)cc1 (mixture of isomers) [Metaflumizone] |  |  |  |  |  |  |  | > 5,000 mg/kg |  |
| N#Cc1nn(-c2c(Cl)cc(C(F)(F)F)cc2Cl)c(N)c1[S+]([O-])C(F)(F)F (stereo not shown) [fipronil] |  |  |  |  |  |  |  |  | around 20 ppm |
